15 compounds from article PMC6834077, “The evolving story of AtzT, a periplasmic binding protein” (Acta Crystallographica. Section D, Structural Biology, 2019) can be followed below.

The target of this experiment is AtzT (Pseudomonas sp. (strain ADP), UniProt Q936X6). In words: Surface plasmon resonance (SPR) binding to immobilized AtzT, 1:1 steady-state affinity model. In general terms: SPR reads the build-up and loss of mass on a sensor chip optically.
[1] abbreviates: Biacore S200, CM5 chip, 293 K, HBS-P+ buffer with 2%(v/v) DMSO, mean ± standard deviation (n = 3).

Several values for one entry are separate records, joined by “and”; a condition that tells them apart may be missing. Equal entries are not always repeated. Where two headings read alike, the source gives them in different places.

Sequence of AtzT (Q936X6 27-360 limits assumed): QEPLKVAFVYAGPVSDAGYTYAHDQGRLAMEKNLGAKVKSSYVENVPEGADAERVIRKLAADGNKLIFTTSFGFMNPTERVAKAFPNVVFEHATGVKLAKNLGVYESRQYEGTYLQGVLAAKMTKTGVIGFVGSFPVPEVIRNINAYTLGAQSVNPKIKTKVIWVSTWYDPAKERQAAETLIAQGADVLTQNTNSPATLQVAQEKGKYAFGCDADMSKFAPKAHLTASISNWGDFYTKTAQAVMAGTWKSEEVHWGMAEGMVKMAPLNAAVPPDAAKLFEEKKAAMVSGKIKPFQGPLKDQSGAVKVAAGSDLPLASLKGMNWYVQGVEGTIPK

With `CCNc1nc(O)nc(NC(C)C)n1` [2-Hydroxyatrazine], the “fold tighter binding than atrazine” value (2-hydroxyatrazine vs atrazine) is ~700 fold and > 600 fold. The same compound showed a Kd under setting [1] of 2.2 ± 0.2 µM. `OB(O)c1ccc(I)cc1` [4-Iodophenylboronic acid] registered a Kd under setting [1] of 5000 ± 1000 µM. As for `Nc1ncnc2nc[nH]c12` [Adenine], the Kd was about 2.5 µM. Under setting [1], this compound registered a Kd of 2.5 ± 0.3 µM. In turn, `Nc1nc(N)nc(O)n1` [Ammeline] showed a Kd under setting [1] of 0.36 ± 0.02 µM. Also, the “fold difference in K D between ammeline and ammelide” value (ammeline vs ammelide) is on record as over 250 fold. In turn, `CCNc1nc(Cl)nc(NC(C)C)n1` [Atrazine] had a Kd of about 1500 µM. Binding under setting [1] was put at a Kd of 1500 ± 200 µM. Take `O=C1CC(=O)NC(=O)N1` [Barbaturic acid]: under setting [1], the Kd is over 8000 µM. On the same count and under the same terms, as for `CCC1(CC)C(=O)NC(=O)NC1=O` [Barbitone], the figure is over 8000 µM; as for `O=c1[nH]c(=O)[nH]c(=O)[nH]1` [Cyanuric acid], 340 ± 30 µM.

`Nc1cc[nH]c(=O)n1` [Cytosine] had a Kd under setting [1] of 800 ± 90 µM. This Kd is about 2.4-fold higher than that of the compound before. Still for that read-out and setting: with `Nc1nc2c(ncn2[C@@H]2O[C@H](COP(=O)(O)OP(=O)(O)OP(=O)(O)O)[C@@H](O)[C@H]2O)c(=O)[nH]1` [GTP] the figure was over 8000 µM. `Nc1nc2nc[nH]c2c(=O)[nH]1` [Guanine] showed a Kd of about 0.11 µM. The Kd under setting [1] stood at 0.11 ± 0.02 µM. The “time in which the majority of the guanine dissociates from AtzT” value (Supplementary Fig. S4) is listed as about 20 s. Consider `Nc1nc(N)nc(N)n1` [Melamine], for which, under setting [1], the Kd was over 400 µM. On to `O=C(O)c1c(Br)c(Br)c(C(=O)O)c(Br)c1Br` [Tetrabromoterephthalic acid], for which the Kd under setting [1] was over 8000 µM. Regarding `Cc1c[nH]c(=O)[nH]c1=O` [Thymine], under setting [1], the affinity, expressed as Kd, was 620 ± 40 µM. `O=c1cc[nH]c(=O)[nH]1` [Uracil] came in with a Kd under setting [1] of 1600 ± 300 µM. This Kd is about 2.6-fold higher than that of the compound before.

The term Kd denotes a measure of binding affinity in units of concentration.
